This series relates to rodent carcinogenicity bioassays, tumor incidence. Put plainly: CCRIS carcinogenicity studies. Conditions: Dose: 0, Dose: 0. The method in brief: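 NCI-built, expert-reviewed records of carcinogenicity and related test outcomes (mutagenicity, tumor promotion/inhibition) compiled from published and report sources, historical span 1985-2011, not updated.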

The source made the active and inactive calls. How the calls were made is not given here.

In the case of `CCC1CO1` (stereo unspecified), the carcinogen call is, setting by setting: (Species: MOUSE, Strain/Sex: B6C3F1/FEMALE, Route: INHALATION, 50, 100 PPM 6 HR/D 5D/WK FOR 102 WK (STUDY DURATION: 103 WK), 50, 100 PPM 6 HR/D 5D/WK FOR 102 WK (STUDY DURATION: 103 WK)) “inactive; negative”; (Species: MOUSE, Strain/Sex: B6C3F1/MALE, Route: INHALATION, 50, 100 PPM 6 HR/D 5D/WK FOR 102 WK (STUDY DURATION: 103 WK), 50, 100 PPM 6 HR/D 5D/WK FOR 102 WK (STUDY DURATION: 103 WK)) “inactive; negative”; (Species: RAT, Strain/Sex: F344/FEMALE, Route: INHALATION, 200, 400 PPM 6 HR/D 5 D/WK FOR 103 WK (STUDY DURATION: 104 WK), 200, 400 PPM 6 HR/D 5 D/WK FOR 103 WK (STUDY DURATION: 104 WK), Tumor Site: Type of Lesion: NASAL CAVITY: PAPILLARY ADENOMA) “equivocal”; (Species: RAT, Strain/Sex: F344/MALE, Route: INHALATION, 200, 400 PPM 6 HR/D 5D/WK FOR 103 WK (STUDY DURATION: 104 WK), 200, 400 PPM 6 HR/D 5D/WK FOR 103 WK (STUDY DURATION: 104 WK), Tumor Site: Type of Lesion: NASAL CAVITY: PAPILLARY ADENOMA, LUNG: ALVEOLAR/BRONCHIOLAR CARCINOMA, LUNG: ALVEOLAR/BRONCHIOLAR ADENOMA OR CARCINOMA, Tumor Site: Type of Lesion: NASAL CAVITY: PAPILLARY ADENOMA, LUNG: ALVEOLAR/BRONCHIOLAR CARCINOMA, LUNG: ALVEOLAR/BRONCHIOLAR ADENOMA OR CARCINOMA) “active; positive”.
With `O=S(=O)([O-])[O-].[O]=[V+2]`, the carcinogen call was “inactive; negative” (Species: MOUSE, Strain/Sex: SWISS/FEMALE, Route: ORAL, 5 PPM IN DRINKING WATER FOR DURATION OF STUDY (STUDY DURATION: LIFE SPAN)) and “inactive; negative” (Species: MOUSE, Strain/Sex: SWISS/MALE, Route: ORAL, 5 PPM IN DRINKING WATER FOR DURATION OF STUDY (STUDY DURATION: LIFE SPAN)).
For `CO[C@@H]1[C@@H](O[C@@H]2O[C@H](C)[C@@H](O[C@H]3C[C@@](C)(O)[C@@H](OC(=O)CC(C)C)[C@H](C)O3)[C@H](N(C)C)[C@H]2O)[C@@H](CC=O)C[C@@H](C)[C@@H](O)/C=C/C=C/C[C@@H](C)OC(=O)C[C@H]1OC(C)=O`, the carcinogen call (Species: RAT, Strain/Sex: F344/FEMALE, Route: ORAL, 1.25, 2.5% IN DIET FOR 104 WK (STUDY DURATION: 106 WK), 1.25, 2.5% IN DIET FOR 104 WK (STUDY DURATION: 106 WK)) was “inactive; negative” and the carcinogen call (Species: RAT, Strain/Sex: F344/MALE, Route: ORAL, 1.25, 2.5% IN DIET FOR 104 WK (STUDY DURATION: 106 WK)) was “inactive; negative”.
Regarding `Cc1ccc2c3c(cccc13)-c1ccccc1-2`, the carcinogen call runs as follows: (Species: MOUSE, Strain/Sex: CD-1/FEMALE, Route: INTRAPERITONEAL, 3.46, 17.3 UMOL (TOTAL DOSE) IN DMSO ADMINISTERED ON DAYS 1,8, AND 15 OF LIFE (STUDY DURATION: 52 WK), 3.46, 17.3 UMOL (TOTAL DOSE) IN DMSO ADMINISTERED ON DAYS 1,8, AND 15 OF LIFE (STUDY DURATION: 52 WK)) “inactive; negative”; (Species: MOUSE, Strain/Sex: CD-1/MALE, Route: INTRAPERITONEAL, 3.46, 17.3 UMOL (TOTAL DOSE) IN DMSO ADMINISTERED ON DAYS 1,8, AND 15 OF LIFE (STUDY DURATION: 52 WK), 3.46, 17.3 UMOL (TOTAL DOSE) IN DMSO ADMINISTERED ON DAYS 1,8, AND 15 OF LIFE (STUDY DURATION: 52 WK), Tumor Site: Type of Lesion: LIVER: TUMORS) “active; positive”.
With `O=C1C(c2[nH]c3ccc(S(=O)(=O)O)cc3c2O)=Nc2ccc(S(=O)(=O)O)cc21`, the carcinogen call is “inactive; negative” (Species: DOG, Strain/Sex: BEAGLE/MALE, FEMALE, Route: ORAL, 1, 2% IN DIET FOR 2 YR, 1, 2% IN DIET FOR 2 YR); “inactive; negative” (Species: MOUSE, Strain/Sex: C3H AND C57/MALE, FEMALE, Route: SUBCUTANEOUS, 2.5 MG AS A 1% AQUEOUS SOLUTION 1/WK FOR 2 YR); “inactive; negative” (Species: MOUSE, Strain/Sex: CD-1/FEMALE, Route: ORAL, 0.5, 1.5, 5% IN DIET FOR 23 MO (STUDY DURATION: 24 MO), 0.5, 1.5, 5% IN DIET FOR 23 MO (STUDY DURATION: 24 MO)); “inactive; negative” (Species: MOUSE, Strain/Sex: CD-1/MALE, Route: ORAL, 0.5, 1.5, 5% IN DIET FOR 22 MO (STUDY DURATION: 24 MO), 0.5, 1.5, 5% IN DIET FOR 22 MO (STUDY DURATION: 24 MO)); “inactive; negative” (Species: RAT, Strain/Sex: OSBORNE-MENDEL/MALE, FEMALE, Route: ORAL, 0.5, 1.0, 2.0, 5.0% IN DIET FOR 2 YR, 0.5, 1.0, 2.0, 5.0% IN DIET FOR 2 YR); “active; positive” (Species: RAT, Strain/Sex: OSBORNE-MENDEL/MALE, FEMALE, Route: SUBCUTANEOUS, 20 MG AS A 2% AQUEOUS SOLUTION 1/WK FOR 2 YR, Tumor Site: Type of Lesion: INJECTION SITE: FIBROSARCOMA). For the same compound, the carcinogen call (Species: RAT, Strain/Sex: STRAIN-CD/FEMALE, Route: ORAL, 0.5, 1, 2% IN DIET FOR 30 MO TO ANIMALS ALSO EXPOSED IN UTERO THROUGH THE SAME DOSES ADMINISTERED TO PARENTS BEGINNIN, 0.5, 1, 2% IN DIET FOR 30 MO TO ANIMALS ALSO EXPOSED IN UTERO THROUGH THE SAME DOSES ADMINISTERED TO PARENTS BEGINNIN) is “inactive; negative” and the carcinogen call (Species: RAT, Strain/Sex: STRAIN-CD/MALE, Route: ORAL, 0.5, 1, 2% IN DIET FOR 29 MO TO ANIMALS ALSO EXPOSED IN UTERO THROUGH THE SAME DOSES ADMINISTERED TO PARENTS BEGINNIN, 0.5, 1, 2% IN DIET FOR 29 MO TO ANIMALS ALSO EXPOSED IN UTERO THROUGH THE SAME DOSES ADMINISTERED TO PARENTS BEGINNIN) is “inactive; negative”.
Consider `O=S(=O)(c1ccc(Cl)cc1)c1ccc(Cl)cc1`, for which the carcinogen call (Species: MOUSE, Strain/Sex: B6C3F1/FEMALE, Route: ORAL, 30, 100, 300 PPM IN DIET FOR 104-105 WK (STUDY DURATION: 104-105 WK), 30, 100, 300 PPM IN DIET FOR 104-105 WK (STUDY DURATION: 104-105 WK)) is “inactive; negative”; the carcinogen call (Species: MOUSE, Strain/Sex: B6C3F1/MALE, Route: ORAL, 30, 100, 300 PPM IN DIET FOR 104-105 WK (STUDY DURATION: 104-105 WK), 30, 100, 300 PPM IN DIET FOR 104-105 WK (STUDY DURATION: 104-105 WK)) was “inactive; negative”; the carcinogen call (Species: RAT, Strain/Sex: F344/FEMALE, Route: ORAL, 30, 100, 300 PPM IN DIET FOR 104-105 WK (STUDY DURATION: 104-105 WK), 30, 100, 300 PPM IN DIET FOR 104-105 WK (STUDY DURATION: 104-105 WK)) was “inactive; negative”; the carcinogen call (Species: RAT, Strain/Sex: F344/MALE, Route: ORAL, 10, 30, 100, 300 PPM IN DIET FOR 104-105 WK (STUDY DURATION: 104-105 WK), 10, 30, 100, 300 PPM IN DIET FOR 104-105 WK (STUDY DURATION: 104-105 WK)) was “inactive; negative”.
For the compound `O[C@@H]1[C@H]2O[C@H]2c2c(ccc3cc4ccc5ccccc5c4nc23)[C@H]1O`, the carcinogen call (Species: MOUSE, Strain/Sex: CD-1/FEMALE, Route: INTRAPERITONEAL, 175 NMOL (TOTAL DOSE) ADMINISTERED AS 1/7 OF DOSE WITHIN 24 HR AFTER BIRTH, 2/7 OF DOSE AT 8 D OLD, 4/7 OF DOSE AT 15, Tumor Site: Type of Lesion: LIVER: TUMOR, LUNG: TUMOR) was “active; positive” and the carcinogen call (Species: MOUSE, Strain/Sex: CD-1/MALE, Route: INTRAPERITONEAL, 175 NMOL (TOTAL DOSE) ADMINISTERED AS 1/7 OF DOSE WITHIN 24 HR AFTER BIRTH, 2/7 OF DOSE AT 8 D OLD, 4/7 OF DOSE AT 15, Tumor Site: Type of Lesion: LIVER: TUMOR, LUNG: TUMOR) is “active; positive”.
For the compound `Cc1c([N+](=O)[O-])c2ccccc2c2ccc3ccccc3c12`, the carcinogen call was “inactive; negative” (Species: MOUSE, Strain/Sex: SWISS/FEMALE, Route: INTRAPERITONEAL, 100 NMOL (TOTAL DOSE) ADMINISTERED 1/7, 2/7 AND 4/7 ON DAY 1, 8 AND 15 RESPECTIVELY (STUDY DURATION: 32 WK)) and “active; positive” (Species: MOUSE, Strain/Sex: SWISS/MALE, Route: INTRAPERITONEAL, 100 NMOL (TOTAL DOSE) ADMINISTERED 1/7, 2/7 AND 4/7 ON DAY 1, 8 AND 15 RESPECTIVELY (STUDY DURATION: 32 WK), Tumor Site: Type of Lesion: LIVER: TUMOR).

For the origin of these results see PubChem BioAssay AID1259411 (Chemical Carcinogenesis Research Information System (CCRIS), 2018).
